This passage reports IC50 and solubility results from patent publication US20140005163A1 (NOVARTIS AG, priority 2010, published 2014).

Values after ≈ are worked out from the molar mass of the structure shown. Like-named read-outs stand apart in the source and are kept apart here.

For data set [1], the system named is PKB Ser473 phosphorylation in Rat1-myr-HA-p110 alpha cells. The experiment in a line: Reverse protein array assay, PKB Ser473 phosphorylation in Rat1-myr-p110 alpha cells. In kind it is cell-based. The note with it: 0.5 h, pAkt Ser473, 30 minutes compound incubation, read-out: p-PKB IC50. A digest of the protocol: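 Compound exposure lasted 30 min in Rat1 cells bearing membrane-targeted HA-p110 isoforms, using 8 serial concentrations. Arrayed lysates, each spotted at four dilutions, gave relative fluorescence signals for phospho-Ser473 PKB.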

A further data set is described as follows: Solubility at pH 6.8. In kind it is physicochemical. A digest of the protocol:
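Following the procedure of Zhou et al. (2007), compound solubility was determined at pH 6.8.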

Data set [2] has as its system S6 Ribosomal Protein phosphorylation Ser235/236 in TSC1 null mouse embryo fibroblast (MEF) cells. The experiment in a line: Reverse protein array assay, S6 Ribosomal Protein phosphorylation Ser235/236 in TSC1 null MEF cells. Type of data set: cell-based. The note with it: 1 h, pS6 ribosomal protein Ser235/236, 60 minutes incubation, read-out: p-S6 IC50. A digest of the protocol:
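TSC1−/− MEFs, seeded and held ≥20 h at 37 °C/5% CO2, were exposed to 8-step serial compound dilutions (0.02% DMSO final; DMSO vehicle control) for 60 min at 37 °C. Cells were then lysed on ice for 10 min and lysates spotted onto reverse protein array chips.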

The next data set addresses T1, mTOR (Homo sapiens, UniProt P42345).
T1 construct: purchased Invitrogen Corporation (Carlsbad/CA, USA) PV4753
The experiment in a line: Biochemical assay for m-TOR by TR-FRET. The note with it: 8 μM ATP, 400 nM GFP-4EBP1, 0.5 nM mTOR. A digest of the protocol:
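Enzyme 0.5 nM, GFP-4EBP1 400 nM, ATP 8 μM (all final); 50 mM HEPES pH 7.5, 10 mM MnCl2, 1 mM DTT; rt. Detection: Tb-α-p4EBP1 [pT46] 0.5 nM in EDTA, TR-FRET, 15 min. Reference compound on every plate, 16-point duplicate dilutions.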

The mark [3] stands for this setting: pH 6.8, aqueous buffer, thermodynamic from solid, read-out: solubility.

T1 sequence (P42345 1360-2549 limits assumed): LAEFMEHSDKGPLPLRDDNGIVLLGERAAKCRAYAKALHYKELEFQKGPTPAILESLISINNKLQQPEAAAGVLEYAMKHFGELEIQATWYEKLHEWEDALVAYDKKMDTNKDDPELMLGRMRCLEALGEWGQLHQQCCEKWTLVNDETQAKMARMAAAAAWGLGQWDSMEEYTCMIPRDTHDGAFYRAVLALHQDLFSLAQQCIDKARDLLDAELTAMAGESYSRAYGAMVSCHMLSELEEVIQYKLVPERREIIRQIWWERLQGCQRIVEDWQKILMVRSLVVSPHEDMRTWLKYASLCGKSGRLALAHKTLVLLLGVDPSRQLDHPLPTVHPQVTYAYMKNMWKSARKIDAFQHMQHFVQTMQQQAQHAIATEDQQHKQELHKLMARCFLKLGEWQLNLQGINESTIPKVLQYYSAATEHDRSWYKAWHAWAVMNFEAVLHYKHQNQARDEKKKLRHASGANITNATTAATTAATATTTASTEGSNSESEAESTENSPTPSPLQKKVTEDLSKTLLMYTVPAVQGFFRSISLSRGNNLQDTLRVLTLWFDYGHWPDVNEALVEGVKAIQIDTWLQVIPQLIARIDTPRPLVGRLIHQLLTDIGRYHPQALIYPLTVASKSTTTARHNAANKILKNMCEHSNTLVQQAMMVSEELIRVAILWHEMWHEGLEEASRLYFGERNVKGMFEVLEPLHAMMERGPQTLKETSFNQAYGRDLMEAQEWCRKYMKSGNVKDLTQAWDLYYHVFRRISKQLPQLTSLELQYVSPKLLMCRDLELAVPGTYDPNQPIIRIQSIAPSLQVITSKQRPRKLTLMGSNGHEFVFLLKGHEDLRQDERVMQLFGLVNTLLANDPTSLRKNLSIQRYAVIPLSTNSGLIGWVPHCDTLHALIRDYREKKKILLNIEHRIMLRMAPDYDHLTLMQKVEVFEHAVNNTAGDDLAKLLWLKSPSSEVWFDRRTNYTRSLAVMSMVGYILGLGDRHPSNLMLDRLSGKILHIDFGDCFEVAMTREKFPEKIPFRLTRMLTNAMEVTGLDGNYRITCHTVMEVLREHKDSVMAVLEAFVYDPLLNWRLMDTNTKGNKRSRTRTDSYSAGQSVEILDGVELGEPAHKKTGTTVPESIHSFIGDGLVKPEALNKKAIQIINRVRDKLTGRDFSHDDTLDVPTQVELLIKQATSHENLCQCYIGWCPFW

In the case of `CCOc1ccc(-c2ccc3ncc4[nH]c(=O)n(-c5cn(C)nc5C)c4c3c2)cn1` [Example 110, 1-(1,3-Dimethyl-1H-pyrazol-4-yl)-8-(6-ethoxy-pyridin-3-yl)-1,3-dihydro-imidazo[4,5-c]quinolin-2-one], the figures for the IC50 (in data set [1]; in data set [2]; at mTOR) were 67 nM, 78 nM and 14 nM, respectively. Also, the solubility – broadly, the dissolved amount per volume that the medium holds – in “Solubility at pH 6.8” (pH 6.8) came to 2 µg/mL (≈ 4.99 µM).
For `CCOc1ccc(-c2ccc3ncc4c(c3c2)n(-c2cn(CC)nc2C)c(=O)n4C)cc1OCC` [Example 27.1, 8-(3,4-Diethoxy-phenyl)-1-(1-ethyl-3-methyl-1H-pyrazol-4-yl)-3-methyl-1,3-dihydro-imidazo[4,5-c]quinolin-2-one] the same measures were 17 nM, 13 nM, 49 nM and 2 µg/mL (≈ 4.24 µM).
As to `Cc1nn(C)cc1-n1c(=O)n(C)c2cnc3ccc(-c4cncc(C(C)(C)O)c4)cc3c21` [Example 215.2, 1-(1,3-Dimethyl-1H-pyrazol-4-yl)-8-[5-(1-hydroxy-1-methyl-ethyl)-pyridin-3-yl]-3-methyl-1,3-dihydro-imidazo[4,5-c]quinolin-2-one], the IC50 (in general, the concentration that inhibits the measured activity by half) in data set [1] turned out to be 43 nM; in data set [2] it was 3 nM; on mTOR, 9 nM. The solubility in “Solubility at pH 6.8” (setting [3]) is above 428 µg/mL.
As to `CCN(C)C(=O)Cn1cc(-n2c(=O)n(C)c3cnc4ccc(-c5cnc(N6CCCC6)nc5)cc4c32)c(C)n1` [Example 140.1, N-Ethyl-N-methyl-2-{3-methyl-4-[3-methyl-2-oxo-8-(2-pyrrolidin-1-yl-pyrimidin-5-yl)-2,3-dihydro-imidazo[4,5-c]quinolin-1-yl]-pyrazol-1-yl}-acetamide], the figures for the IC50 (in data set [1]; in data set [2]; on mTOR) were 84 nM, 5 nM and 36 nM, respectively. In the data set “Solubility at pH 6.8” (setting [3]), the solubility is 36 µg/mL (≈ 68.5 µM).
The corresponding values for `CCn1cc(-n2c(=O)n(C)c3cnc4ccc(-c5ccc(NC)nc5)cc4c32)c(C)n1` [Example 118.4, 1-(1-Ethyl-3-methyl-1H-pyrazol-4-yl)-3-methyl-8-(6-methylamino-pyridin-3-yl)-1,3-dihydro-imidazo[4,5-c]quinolin-2-one] are below 5 nM, 2 nM, 4 nM and 70 µg/mL (≈ 169 µM).
The corresponding values for `CCn1cc(-n2c(=O)n(C)c3cnc4ccc(-c5cnc(COC)c(OC)c5)cc4c32)c(C)n1` [Example 195.3, 1-(1-Ethyl-3-methyl-1H-pyrazol-4-yl)-8-(5-methoxy-6-methoxymethyl-pyridin-3-yl)-3-methyl-1,3-dihydro-imidazo[4,5-c]quinolin-2-one] are 92 nM, 31 nM, 76 nM and above 459 µg/mL.
As for `CCNc1cc(-c2ccc3ncc4c(c3c2)n(-c2c(C)nn(C)c2C)c(=O)n4C)cnc1F` [Example 154.1, 8-(5-Ethylamino-6-fluoro-pyridin-3-yl)-3-methyl-1-(1,3,5-trimethyl-1H-pyrazol-4-yl)-1,3-dihydro-imidazo[4,5-c]quinolin-2-one], the IC50 in data set [1] amounted to 102 nM; in data set [2] it was 3 nM; at mTOR, 619 nM. This compound displayed a solubility in “Solubility at pH 6.8” (pH 6.8) of 2 µg/mL (≈ 4.49 µM).
For `Cc1nn(C)cc1-n1c(=O)n(C)c2cnc3ccc(-c4cnc5cc[nH]c5c4)cc3c21` [Example 99, 1-(1,3-Dimethyl-1H-pyrazol-4-yl)-3-methyl-8-(1H-pyrrolo[3,2-b]pyridin-6-yl)-1,3-dihydro-imidazo[4,5-c]quinolin-2-one] the same measures were 13 nM, 4 nM, below 3 nM and 2 µg/mL (≈ 4.88 µM).
For `CNc1ncc(-c2ccc3ncc4c(c3c2)n(-c2cc(C)nn2C)c(=O)n4C)cc1Cl` [Example 146.5, 8-(5-Chloro-6-methylamino-pyridin-3-yl)-1-(2,5-dimethyl-2H-pyrazol-3-yl)-3-methyl-1,3-dihydro-imidazo[4,5-c]quinolin-2-one], the results for the IC50 (in data set [1]; in data set [2]; on mTOR) were 12 nM, 2.66 nM and 48 nM, respectively. In “Solubility at pH 6.8” (setting [3]), the solubility is 3 µg/mL (≈ 6.91 µM).
The corresponding values for `Cc1nn(C)cc1-n1c(=O)n(C)c2cnc3ccc(-c4cccc(C(N)=O)c4)cc3c21` [Example 46, 3-[1-(1,3-Dimethyl-1H-pyrazol-4-yl)-3-methyl-2-oxo-2,3-dihydro-1H-imidazo[4,5-c]quinolin-8-yl]-benzamide] are 214 nM, 98 nM, 231 nM and 8 µg/mL (≈ 19.4 µM).
In the case of `Cc1nn(CC(=O)N(C)C)cc1-n1c(=O)n(C)c2cnc3ccc(-c4ccccc4)cc3c21` [Example 37.3, N,N-Dimethyl-2-[3-methyl-4-(3-methyl-2-oxo-8-phenyl-2,3-dihydro-imidazo[4,5-c]quinolin-1-yl)-pyrazol-1-yl]-acetamide], the IC50 was 40 nM in data set [1], 15 nM in data set [2] and 19 nM at mTOR. Further, in the data set “Solubility at pH 6.8” (setting [3]), the solubility turned out to be 41 µg/mL (≈ 93.1 µM).
For `COc1ccc(-c2ccc3ncc4c(c3c2)n(-c2cn(C)nc2C)c(=O)n4C)cc1OC` [Example 1.8, 8-(3,4-Dimethoxy-phenyl)-1-(1,3-dimethyl-1H-pyrazol-4-yl)-3-methyl-1,3-dihydro-imidazo[4,5-c]quinolin-2-one] the same measures were 9 nM, below 5 nM, 6 nM and 10 µg/mL (≈ 23.3 µM).
For `Cc1noc(C)c1-n1c(=O)n(C)c2cnc3ccc(-c4cnc(N)c(Cl)c4)cc3c21` [Example 148.4, 8-(6-Amino-5-chloro-pyridin-3-yl)-1-(3,5-dimethyl-isoxazol-4-yl)-3-methyl-1,3-dihydro-imidazo[4,5-c]quinolin-2-one] the same measures were 151 nM, 17.7 nM, 678 nM and 3 µg/mL (≈ 7.13 µM).
The corresponding values for `Cc1nn(C)cc1-n1c(=O)n(C)c2cnc3ccc(-c4cncc(C5(O)CCCC5)c4)cc3c21` [Example 218, 1-(1,3-Dimethyl-1H-pyrazol-4-yl)-8-[5-(1-hydroxy-cyclopentyl)-pyridin-3-yl]-3-methyl-1,3-dihydro-imidazo[4,5-c]quinolin-2-one] are 22 nM, below 0.5 nM, 41 nM and 14 µg/mL (≈ 30.8 µM).
As to `Cc1nn(CC(=O)N(C)C)c(C)c1-n1c(=O)n(C)c2cnc3ccc(-c4cncc(OC5CCC5)c4)cc3c21` [Example 60.2, 2-{4-[8-(5-Cyclobutoxy-pyridin-3-yl)-3-methyl-2-oxo-2,3-dihydro-imidazo[4,5-c]quinolin-1-yl]-3,5-dimethyl-pyrazol-1-yl}-N,N-dimethyl-acetamide], the IC50 in data set [1] was 829 nM; in data set [2], 11 nM; at mTOR, 703 nM. Besides, the solubility in “Solubility at pH 6.8” (setting [3]) was 76 µg/mL (≈ 145 µM).
For `Cc1ncc(-c2ccc3ncc4c(c3c2)n(-c2cn(C)nc2C)c(=O)n4C)cc1OC(C)C` [Example 84.1, 1-(1,3-Dimethyl-1H-pyrazol-4-yl)-8-(5-isopropoxy-6-methyl-pyridin-3-yl)-3-methyl-1,3-dihydro-imidazo[4,5-c]quinolin-2-one] the same measures were below 5 nM, 2 nM, 4 nM and 219 µg/mL (≈ 495 µM).
The corresponding values for `COc1ccc(-c2ccc3ncc4[nH]c(=O)n(-c5cn(C)nc5C)c4c3n2)cc1OC` [Example 249, 8-(3,4-dimethoxy-phenyl)-1-(1,3-dimethyl-1H-pyrazol-4-yl)-1,3-dihydro-1,3,5,9-tetraaza-cyclopenta[a]naphthalen-2-one] are 7 nM, 2 nM, 30 nM and 16 µg/mL (≈ 38.4 µM).
For `CCOc1cc(-c2ccc3ncc4c(c3c2)n(-c2cn(CC)nc2C)c(=O)n4C)ccc1OC` [Example 28.1, 8-(3-Ethoxy-4-methoxy-phenyl)-1-(1-ethyl-3-methyl-1H-pyrazol-4-yl)-3-methyl-1,3-dihydro-imidazo[4,5-c]quinolin-2-one] the same measures were 7 nM, below 5 nM, 16 nM and 9 µg/mL (≈ 19.7 µM).
Turning to `CCNc1cc(-c2ccc3ncc4c(c3c2)n(-c2c(C)nn(CCOC)c2C)c(=O)n4C)cnc1OC` [Example 90.2, 8-(5-Ethylamino-6-methoxy-pyridin-3-yl)-1-[1-(2-methoxy-ethyl)-3,5-dimethyl-1H-pyrazol-4-yl]-3-methyl-1,3-dihydro-imidazo[4,5-c]quinolin-2-one], the IC50 in data set [1] is 17 nM; in data set [2] it was 35 nM; at mTOR it was 129 nM. Besides, the solubility in “Solubility at pH 6.8” (setting [3]) is above 502 µg/mL.
